Test results from patent publication US20210134398A1, “Combinatorial Chemistry Computational System and Enhanced Selection Method” (Southern Methodist University, priority 2019, published 2021).
Entries after “also recorded” stand apart in the source; their conditions may differ.

Legend:
[1] = target: T1, P-gp-catalyzed transport of calcein AM in DU145TXR cells (Homo sapiens, UniProt P08183); test: Calcein AM accumulation assay; assay type: cell-based; conditions: after 6-hour pre-incubation, compared to parental 29
T1 construct: DU145 human prostate cancer cells^52 as well as the multidrug resistant sub-line, DU145TXR; endogenous in cells; host or cells: DU145TXR (paclitaxel-selected sub-line of human DU145 prostate cancer cells)
Experimental: Accumulation and cellular retention of calcein AM in P-gp overexpressing prostate cancer cells upon incubation with Group 1 SMU-29 variants. Calcein AM accumulation assays have been used by us previously to evaluate P-gp-substrate accumulation in real time in the presence or absence of P-gp inhibitors^28. For these assays, P-gp overexpressing DU145TXR cells were incubated with the respective inhibitors in the presence of the P-gp substrate, calcein AM. Inhibition of P-gp leads to cellular accumulation of calcein AM and to cleavage of its acetoxymethyl ester groups, resulting in the generation of the highly fluorescent compound, calcein. The anionic calcein is not a substrate of P-gp and remains in the cells. In these assays, the relative fluorescence of cellular calcein was measured over time and the results of these assays are shown in FIG. 13A. […]
Calcein AM assay. To assess inhibition of P-gp-catalyzed transport of the P-gp pump substrate, calcein AM, DU145TXR cells were seeded in 96 wells plates and allowed to grow in complete medium until confluency was reached. Medium was removed, and cells were treated […] P-gp inhibitory compounds and 1 μg/mL calcein AM (Life Technologies, OR) and diluted into phenol red free RPMI 1640 media. To study the effect of pre-incubation of compounds, cells were treated with just P-gp inhibitory compounds and incubated at 37° C. for six hours before adding calcein AM. Fluorescence excitation at 485 nm with a 20 nm gate and at emission at 535 nm with a 20 nm gate was measured using a BioTek Cytation 5 imaging multi-mode reader (Bio-Tek, Winooski, Vt.) over 60 minutes in 20 minute intervals. DMSO was used as vehicle. Results were plotted as the mean with standard deviation (SD) of six replicates per concentration and are representative of at least two independent experiments.

[2] = target: T2, Normal Human MDR1 P-glycoprotein (Homo sapiens, UniProt P08183); test: ATPase activity assay (basal and verapamil-stimulated), P-gp in nanodiscs; assay type: biochemical; conditions: for Effect on stimulated ATPase / Stimulated ATPase: in the presence of verapamil; for Stimulated ATPase / Basal ATPase: ± standard deviation; for Effect on basal ATPase / Basal ATPase: no added transport substrate
T2 construct: made in house; host or cells: Pichia pastoris (P-gp); E. coli BL21 (DE3) (MSP1E3D1)
From the text: To assess whether the observed discrepancies of compounds stimulating basal P-gp ATPase activity but not being transport substrates of the human pump in the cell culture assessments were due to the fact that these biochemical assays used a cysteineless variant of the mouse MDR3 P-glycoprotein, the experiments were repeated using normal human MDR1 P-gp. In order to stabilize the human protein for the activity assays, the protein was assembled into membrane nanodiscs as described herein.
P-glycoprotein Purification. Cysteine-less MDR3 and the human normal MDR1 P-glycoprotein was recombinantly expressed in the yeast Pichia pastoris essentially as in^45, 46 and used for assaying ATP hydrolysis and ATP binding to the protein in the presence of the 29-variants. Purification of the protein was performed as described^49 with small modifications resulting in highly enriched P-gp in mixed micelles containing dodecyl maltoside (DDM) and lysophosphatidyl choline^26.
Nanodisc assembly. Human P-gp in mixed detergent micelles obtained during protein purification, was reconstituted into nanodiscsas described in references^73, 74 with small modifications. […] The detergent was removed with Bio-Beads™ SM-2 Adsorbent Media (BioRad). Ni-NTA Agarose (Qiagen) chromatography was used to purify P-gp reconstituted nanodiscs using 6 bed volumes of start buffer (20% (v/v) glycerol, 50 mM Tris-CL pH 7.5 at 4° C., 50 mM NaCl), and 5 bed volumes of elution buffer (20% (v/v) glycerol, 50 mM Tris-Cl pH 7.5 at 4° C., 50 mM NaCl, 300 mM imidazole).
ATPase Activity Assays. ATP hydrolysis activity was measured using a coupled enzyme assay^72 as modified in reference^26.

[3] = target: P-gp (P-gp over-expressing cell line, DU145TXR) (Homo sapiens, UniProt P08183); test: Cellular accumulation of experimental compounds by LC-MS/MS with and without tariquidar; conditions: for Transport substrate for P-gp: not told
Experimental: Stimulation of basal ATPase by 29-variants was used as an indicator that a compound may be a P-gp transport substrate. Effects on stimulated P-gp ATPase activity indicated whether a compound directly interfered with ATP usage by the protein (***, p<0.001; **, p<0.01; *, p<0.1; NS, not significant). Quantitative cellular accumulation of 29-variants was performed using LC-MS/MS and is presented as a ratio of the cellular amounts of 29-variants in the presence of P-gp inhibitor, tariquidar, divided by amounts accumulated in its absence. […] Binding of an ATP analog, SL-ATP, to P-gp was used to determine whether ATP binding to P-gp was affected by the 29-variants. Values +/−standard deviations are shown for at least three different P-gp preparations and three independent SL-ATP titration experiments. The values for SL-ATP binding in the presence of 29 were taken directly from Brewer et al. (2014).
Intracellular accumulation of compound 29 variants. Cell accumulation assays for each of the 29 variants were performed as in reference^28 to more directly assess whether the compounds were indeed transport substrates for P-gp.
Cellular Accumulation Assays for Experimental P-gp Inhibitors. Cells used (DU145TXR), cell culturing, cell exposure to compounds, cellular handling and extractions were performed as described in^28. LC-MS/MS methods were performed as described in^71 and as modified in^28.

[4] = target: T1, P-gp-catalyzed transport of calcein AM in DU145TXR cells; test: Calcein AM accumulation assay; assay type: cell-based; conditions: without pre-incubation, compared to parental 29, 5 μM stated for Group 2

T1 sequence (P08183 whole entry): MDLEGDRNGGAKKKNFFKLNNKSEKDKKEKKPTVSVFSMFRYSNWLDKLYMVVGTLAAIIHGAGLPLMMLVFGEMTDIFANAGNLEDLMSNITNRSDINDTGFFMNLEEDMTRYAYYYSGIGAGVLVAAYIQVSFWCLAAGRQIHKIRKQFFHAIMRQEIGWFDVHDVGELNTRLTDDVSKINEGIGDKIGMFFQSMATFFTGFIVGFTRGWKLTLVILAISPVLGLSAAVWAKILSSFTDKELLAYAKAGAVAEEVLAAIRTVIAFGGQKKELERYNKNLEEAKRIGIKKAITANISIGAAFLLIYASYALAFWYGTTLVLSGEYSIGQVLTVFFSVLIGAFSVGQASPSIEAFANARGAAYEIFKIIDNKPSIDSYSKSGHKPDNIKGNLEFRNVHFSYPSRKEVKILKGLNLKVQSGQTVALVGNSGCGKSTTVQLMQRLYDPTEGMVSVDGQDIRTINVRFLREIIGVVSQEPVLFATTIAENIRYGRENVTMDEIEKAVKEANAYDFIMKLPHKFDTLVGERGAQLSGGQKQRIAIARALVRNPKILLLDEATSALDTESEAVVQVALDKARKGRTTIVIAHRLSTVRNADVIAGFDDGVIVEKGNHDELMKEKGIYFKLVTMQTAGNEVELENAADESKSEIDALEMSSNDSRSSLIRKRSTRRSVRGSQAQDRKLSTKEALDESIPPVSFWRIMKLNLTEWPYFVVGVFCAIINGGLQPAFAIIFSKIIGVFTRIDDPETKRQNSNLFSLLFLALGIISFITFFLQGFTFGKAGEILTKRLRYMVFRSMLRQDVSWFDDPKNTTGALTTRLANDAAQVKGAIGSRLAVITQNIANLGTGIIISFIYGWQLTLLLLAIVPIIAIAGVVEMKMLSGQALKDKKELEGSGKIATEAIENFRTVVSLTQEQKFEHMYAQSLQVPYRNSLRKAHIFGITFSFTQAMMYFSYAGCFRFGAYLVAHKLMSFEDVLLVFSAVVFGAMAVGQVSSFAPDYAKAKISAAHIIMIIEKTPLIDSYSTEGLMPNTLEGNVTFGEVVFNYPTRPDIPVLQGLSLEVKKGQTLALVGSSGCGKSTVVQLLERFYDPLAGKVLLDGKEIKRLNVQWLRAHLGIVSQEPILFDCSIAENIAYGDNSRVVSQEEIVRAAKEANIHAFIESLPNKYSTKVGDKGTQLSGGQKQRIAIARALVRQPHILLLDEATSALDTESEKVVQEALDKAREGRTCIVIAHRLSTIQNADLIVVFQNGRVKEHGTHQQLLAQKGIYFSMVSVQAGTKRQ
P-gp (P-gp over-expressing cell line, DU145TXR), sequence (P08183 whole entry): as above
T2 sequence (P08183 whole entry): as above

Calcein accumulation in DU145TXR (in words) [1]	SMILES	Calcein accumulation in DU145TXR (in words) ([1]; listed as 541)	Effect on stimulated ATPase [2]	Stimulated ATPase [2]	Effect on basal ATPase [2]	Basal ATPase [2]	Cellular accumulation: ratio of plus Tariquidar over no Tariquidar ([3]; human)	Transport substrate for P-gp ([3]; human)	Transport substrate for P-gp [3]	Calcein accumulation in DU145TXR (in words) ([4]; listed as 541)	Calcein accumulation in DU145TXR (in words) [4]
–	Cc1cc(C)c(-c2cc(NC(=O)CSc3nnc4c(n3)[nH]c3ccccc34)n(-c3ccccc3)n2)cc1C [29-541, 2-((5H-[1,2,4]triazino[5,6-b]indol-3-yl)thio)-N-(1-phenyl-3-(2,4,5-trimethylphenyl)-1H-pyrazol-5-yl)acetamide]	exceeded 29 significantly; also recorded: exceeded 29 upon preincubation	inhibitor	66 ± 6 % of DMSO	none	87 ± 9 % of DMSO	1.0	none of the Group 1 compounds functions as a transport substrate of P-gp	no	performed relatively equally to 29; also recorded: performed similar to the parental compound	–
equivalent to 29 in efficacy	Cc1cc(C)c(-c2cc(NC(=O)CSc3cccc(NC(=O)c4cncc(Br)c4)c3)n(-c3ccccc3)n2)cc1C [29-551, 5-bromo-N-(3-((2-oxo-2-((1-phenyl-3-(2,4,5-trimethylphenyl)-1H-pyrazol-5-yl)amino)ethyl)thio)phenyl)nicotinamide]	–	inhibitor	27 ± 1 % of DMSO	inhibitor	72 ± 9 % of DMSO	1.1	none of the Group 1 compounds functions as a transport substrate of P-gp	–	–	marginally higher calcein accumulation than parental compound 29
